According to PubChem BioAssay (NCI):
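Protocol summary: plate cells (96-well), add compound at 5 concentrations, incubate 48 h, interpolate endpoints linearly. GI50: concentration for 50% inhibition of growth. TGI denotes the concentration required for complete inhibition of growth.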

Key:
Experiment in all cases: inhibition of tumour cell growth, NCI panel, 48 h
HCT-15 colon = system: HCT-15 colon
SF-295 CNS = system: SF-295 CNS
OVCAR-5 ovarian = system: OVCAR-5 ovarian
MOLT-4 leukemia = system: MOLT-4 leukemia
HCC-2998 colon = system: HCC-2998 colon
SNB-19 CNS = system: SNB-19 CNS
OVCAR-4 ovarian = system: OVCAR-4 ovarian
T-47D breast = system: T-47D breast
UO-31 renal = system: UO-31 renal
HL-60(TB) leukemia = system: HL-60(TB) leukemia

COc1cc(C(=O)c2c(-c3ccccc3)oc3ccccc23)cc(OC)c1O
GI50 (HCT-15 colon): 0.667 µM
TGI (HCT-15 colon): 15.5 µM
GI50 (SF-295 CNS): 2.41 µM
TGI (SF-295 CNS): 6.94 µM
GI50 (OVCAR-5 ovarian): 4.64 µM
TGI (OVCAR-5 ovarian): 32.6 µM
GI50 (MOLT-4 leukemia): 2.69 µM
TGI (MOLT-4 leukemia): 22.2 µM
GI50 (HCC-2998 colon): 5.2 µM
TGI (HCC-2998 colon): 20.4 µM
GI50 (SNB-19 CNS): 6.76 µM
TGI (SNB-19 CNS): 21.7 µM
GI50 (OVCAR-4 ovarian): 5.46 µM
TGI (OVCAR-4 ovarian): 24.4 µM
GI50 (T-47D breast): 2.14 µM
TGI (T-47D breast): 31.8 µM
GI50 (UO-31 renal): 3.14 µM
TGI (UO-31 renal): 19.4 µM
GI50 (HL-60(TB) leukemia): 0.565 µM
TGI (HL-60(TB) leukemia): 3.85 µM

O=C(Nc1ccc(-c2nc3ccc(NC(=O)c4ccc(Cl)cc4)cc3[nH]2)cc1)c1ccc(Cl)cc1
GI50 (HCT-15 colon): 10.6 µM
TGI (HCT-15 colon): 27.4 µM
GI50 (SF-295 CNS): 0.23 µM
TGI (SF-295 CNS): 8.77 µM
GI50 (OVCAR-5 ovarian): 5.45 µM
TGI (OVCAR-5 ovarian): 19.2 µM
GI50 (MOLT-4 leukemia): 0.901 µM
TGI (MOLT-4 leukemia): 8.31 µM
GI50 (HCC-2998 colon): 7.47 µM
TGI (HCC-2998 colon): 21.4 µM
GI50 (SNB-19 CNS): 13.8 µM
TGI (SNB-19 CNS): 28.4 µM
GI50 (OVCAR-4 ovarian): 1.76 µM
TGI (OVCAR-4 ovarian): 3.47 µM
GI50 (T-47D breast): 2.13 µM
TGI (T-47D breast): 5.01 µM
GI50 (UO-31 renal): 8.19 µM
TGI (UO-31 renal): 20 µM
GI50 (HL-60(TB) leukemia): 4.12 µM
TGI (HL-60(TB) leukemia): 16.2 µM

Cn1cc(/C=C2\C(=O)Nc3cccnc32)c2ccccc21
GI50 (HCT-15 colon): > 17.3 µM
TGI (HCT-15 colon): > 25 µM
GI50 (SF-295 CNS): > 25 µM
TGI (SF-295 CNS): > 25 µM
GI50 (OVCAR-5 ovarian): > 25 µM
TGI (OVCAR-5 ovarian): > 25 µM
GI50 (MOLT-4 leukemia): 11.5 µM
TGI (MOLT-4 leukemia): > 25 µM
GI50 (HCC-2998 colon): > 25 µM
TGI (HCC-2998 colon): > 25 µM
GI50 (SNB-19 CNS): > 25 µM
TGI (SNB-19 CNS): > 25 µM
GI50 (OVCAR-4 ovarian): 24.8 µM
TGI (OVCAR-4 ovarian): > 25 µM
GI50 (T-47D breast): > 17.1 µM
TGI (T-47D breast): > 25 µM
GI50 (UO-31 renal): 4.86 µM
TGI (UO-31 renal): > 25 µM
GI50 (HL-60(TB) leukemia): > 22.5 µM
TGI (HL-60(TB) leukemia): > 25 µM

CC(C)(C)c1ccc(C(O)(c2ccc(C(C)(C)C)cc2)c2ccc(C(C)(C)C)cc2)cc1
TGI (HCT-15 colon): > 100 µM
TGI (SF-295 CNS): > 100 µM
TGI (OVCAR-5 ovarian): > 100 µM
TGI (MOLT-4 leukemia): > 100 µM
TGI (HCC-2998 colon): > 100 µM
TGI (SNB-19 CNS): > 100 µM
TGI (OVCAR-4 ovarian): > 100 µM
TGI (T-47D breast): > 100 µM
TGI (UO-31 renal): > 100 µM
TGI (HL-60(TB) leukemia): > 100 µM

O=C(O)C(O)C(O)C1[O][Sb][O]C1CO (stereo not given)
GI50 (HCT-15 colon): > 100 µM
TGI (HCT-15 colon): > 100 µM
GI50 (SF-295 CNS): > 100 µM
TGI (SF-295 CNS): > 100 µM
GI50 (OVCAR-5 ovarian): > 100 µM
TGI (OVCAR-5 ovarian): > 100 µM
GI50 (MOLT-4 leukemia): > 100 µM
TGI (MOLT-4 leukemia): > 100 µM
GI50 (HCC-2998 colon): > 100 µM
TGI (HCC-2998 colon): > 100 µM
GI50 (SNB-19 CNS): > 100 µM
TGI (SNB-19 CNS): > 100 µM
GI50 (OVCAR-4 ovarian): > 100 µM
TGI (OVCAR-4 ovarian): > 100 µM
GI50 (T-47D breast): > 100 µM
TGI (T-47D breast): > 100 µM
GI50 (UO-31 renal): > 100 µM
TGI (UO-31 renal): > 100 µM
GI50 (HL-60(TB) leukemia): > 53.1 µM
TGI (HL-60(TB) leukemia): > 100 µM

Cc1cc(C#Cc2ccccc2)ccc1-n1c(/C=C/c2ccc(O)cc2)nc2ccccc2c1=O
GI50 (HCT-15 colon): 2.5 µM
TGI (HCT-15 colon): 19.2 µM
GI50 (SF-295 CNS): 2.85 µM
TGI (SF-295 CNS): 13.6 µM
GI50 (OVCAR-5 ovarian): 4.59 µM
TGI (OVCAR-5 ovarian): 94.7 µM
GI50 (MOLT-4 leukemia): 2.36 µM
TGI (MOLT-4 leukemia): 8.33 µM
GI50 (HCC-2998 colon): 2.35 µM
TGI (HCC-2998 colon): 7.35 µM
GI50 (SNB-19 CNS): 6.91 µM
TGI (SNB-19 CNS): > 100 µM
GI50 (OVCAR-4 ovarian): 3.17 µM
TGI (OVCAR-4 ovarian): 22.7 µM
GI50 (T-47D breast): 2.02 µM
TGI (T-47D breast): 8.13 µM
GI50 (UO-31 renal): 2.06 µM
TGI (UO-31 renal): 7.65 µM
GI50 (HL-60(TB) leukemia): 1.66 µM
TGI (HL-60(TB) leukemia): 4.69 µM

Fc1ccc(-c2c(-c3ccncc3)n(CCN3CCOCC3)c3cccnc23)cc1
GI50 (HCT-15 colon): > 25 µM
TGI (HCT-15 colon): > 25 µM
GI50 (SF-295 CNS): > 25 µM
TGI (SF-295 CNS): > 25 µM
GI50 (OVCAR-5 ovarian): > 25 µM
TGI (OVCAR-5 ovarian): > 25 µM
GI50 (MOLT-4 leukemia): > 25 µM
TGI (MOLT-4 leukemia): > 25 µM
GI50 (HCC-2998 colon): > 25 µM
TGI (HCC-2998 colon): > 25 µM
GI50 (SNB-19 CNS): > 25 µM
TGI (SNB-19 CNS): > 25 µM
GI50 (OVCAR-4 ovarian): > 25 µM
TGI (OVCAR-4 ovarian): > 25 µM
GI50 (T-47D breast): > 25 µM
TGI (T-47D breast): > 25 µM
GI50 (UO-31 renal): > 5.79 µM
TGI (UO-31 renal): > 25 µM
GI50 (HL-60(TB) leukemia): > 25 µM
TGI (HL-60(TB) leukemia): > 25 µM

Cc1[nH]nc(C(=O)N/N=C/c2cccs2)c1N=NN(C)C
TGI (HCT-15 colon): 38.5 µM
TGI (SF-295 CNS): 45.2 µM
TGI (OVCAR-5 ovarian): > 100 µM
TGI (MOLT-4 leukemia): 90.7 µM
TGI (HCC-2998 colon): 26.6 µM
TGI (SNB-19 CNS): 27.6 µM
TGI (OVCAR-4 ovarian): 31 µM
TGI (T-47D breast): 41.3 µM
TGI (UO-31 renal): 21.9 µM
TGI (HL-60(TB) leukemia): 89.4 µM
